Results: patent US20250228835A1, “PYRIDINYLOXYPYRIDINES AND RELATED COMPOUNDS AND THEIR USE IN TREATING MEDICAL CONDITIONS” (Rectify Pharmaceuticals, Inc., priority 2024, published 2025)
pEC50: −log10 of the molar value.

Experiments:
ABCB4 WT = biological target: T1, ABCB4 WT (Homo sapiens, UniProt P21439); test: ABCB4 WT assay: HiBit protein expression; type: cell-based; conditions: HEK-293 cells stably expressing HiBit-tagged ABCB4 WT; 24 h treatment; top concentration 30 μM; read-out: ABCB4 WT EC50, Emax
T1 construct: expressed in transfected cells
In short: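 HEK-293 cells stably expressing HiBit-tagged human ABCB4 WT, treated 24 h at 37 °C with 11-dose 3-fold dilutions, top final 30 μM in 0.3% DMSO. HiBit lytic reagent luminescence read after 1 h at 25 °C; Emax and EC50 derived.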

ABCA4 P1380L = biological target: T2, ABCA4 P1380L (Homo sapiens, UniProt P78363, P1380L); test: A4 correction dose-response assay: ABCA4 P1380L HiBit protein expression; type: cell-based; conditions: HEK-293 cells stably expressing HiBit-tagged ABCA4 P1380L; 24 h treatment; top concentration 30 μM; read-out: ABCA4 P1380L EC50, Emax
T2 construct: expressed in transfected cells
In short: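 Cells transfected with HiBit-tagged human ABCA4 P1380L cDNA were treated for 24 h at 37°C with an eleven-point dilution series (top final 30 μM, 0.3% DMSO).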

T1 sequence (P21439 whole entry): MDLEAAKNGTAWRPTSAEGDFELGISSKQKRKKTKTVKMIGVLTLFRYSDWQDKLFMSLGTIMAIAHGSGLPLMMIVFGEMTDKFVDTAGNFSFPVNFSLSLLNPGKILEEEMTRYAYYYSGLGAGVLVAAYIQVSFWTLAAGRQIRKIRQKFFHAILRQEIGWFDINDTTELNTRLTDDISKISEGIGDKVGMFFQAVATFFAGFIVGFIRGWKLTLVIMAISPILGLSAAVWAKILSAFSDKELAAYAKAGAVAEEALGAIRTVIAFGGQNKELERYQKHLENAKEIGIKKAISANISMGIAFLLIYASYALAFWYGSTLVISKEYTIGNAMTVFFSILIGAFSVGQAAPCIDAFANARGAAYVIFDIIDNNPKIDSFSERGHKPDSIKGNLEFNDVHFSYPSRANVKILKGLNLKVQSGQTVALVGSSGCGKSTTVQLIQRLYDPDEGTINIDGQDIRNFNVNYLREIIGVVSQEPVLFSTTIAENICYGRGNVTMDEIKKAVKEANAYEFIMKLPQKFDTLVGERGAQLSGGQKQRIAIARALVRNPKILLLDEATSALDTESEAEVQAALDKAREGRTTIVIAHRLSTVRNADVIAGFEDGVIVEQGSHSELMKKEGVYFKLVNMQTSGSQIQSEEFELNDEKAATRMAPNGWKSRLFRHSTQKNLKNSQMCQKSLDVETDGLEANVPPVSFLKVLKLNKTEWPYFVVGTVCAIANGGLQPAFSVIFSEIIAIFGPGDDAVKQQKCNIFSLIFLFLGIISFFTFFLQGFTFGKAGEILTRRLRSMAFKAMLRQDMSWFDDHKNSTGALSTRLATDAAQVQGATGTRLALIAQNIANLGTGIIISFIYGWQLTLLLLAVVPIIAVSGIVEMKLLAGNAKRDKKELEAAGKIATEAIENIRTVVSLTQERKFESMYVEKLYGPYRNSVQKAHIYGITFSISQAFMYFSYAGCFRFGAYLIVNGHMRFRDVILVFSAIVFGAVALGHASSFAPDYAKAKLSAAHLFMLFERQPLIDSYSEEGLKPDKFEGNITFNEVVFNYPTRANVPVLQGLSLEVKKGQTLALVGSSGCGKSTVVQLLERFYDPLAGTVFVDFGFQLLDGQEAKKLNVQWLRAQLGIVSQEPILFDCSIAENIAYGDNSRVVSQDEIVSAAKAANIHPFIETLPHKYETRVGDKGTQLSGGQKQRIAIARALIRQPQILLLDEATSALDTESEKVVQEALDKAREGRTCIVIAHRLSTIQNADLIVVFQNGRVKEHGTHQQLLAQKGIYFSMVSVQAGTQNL
T2 sequence (P78363 whole entry P1380L): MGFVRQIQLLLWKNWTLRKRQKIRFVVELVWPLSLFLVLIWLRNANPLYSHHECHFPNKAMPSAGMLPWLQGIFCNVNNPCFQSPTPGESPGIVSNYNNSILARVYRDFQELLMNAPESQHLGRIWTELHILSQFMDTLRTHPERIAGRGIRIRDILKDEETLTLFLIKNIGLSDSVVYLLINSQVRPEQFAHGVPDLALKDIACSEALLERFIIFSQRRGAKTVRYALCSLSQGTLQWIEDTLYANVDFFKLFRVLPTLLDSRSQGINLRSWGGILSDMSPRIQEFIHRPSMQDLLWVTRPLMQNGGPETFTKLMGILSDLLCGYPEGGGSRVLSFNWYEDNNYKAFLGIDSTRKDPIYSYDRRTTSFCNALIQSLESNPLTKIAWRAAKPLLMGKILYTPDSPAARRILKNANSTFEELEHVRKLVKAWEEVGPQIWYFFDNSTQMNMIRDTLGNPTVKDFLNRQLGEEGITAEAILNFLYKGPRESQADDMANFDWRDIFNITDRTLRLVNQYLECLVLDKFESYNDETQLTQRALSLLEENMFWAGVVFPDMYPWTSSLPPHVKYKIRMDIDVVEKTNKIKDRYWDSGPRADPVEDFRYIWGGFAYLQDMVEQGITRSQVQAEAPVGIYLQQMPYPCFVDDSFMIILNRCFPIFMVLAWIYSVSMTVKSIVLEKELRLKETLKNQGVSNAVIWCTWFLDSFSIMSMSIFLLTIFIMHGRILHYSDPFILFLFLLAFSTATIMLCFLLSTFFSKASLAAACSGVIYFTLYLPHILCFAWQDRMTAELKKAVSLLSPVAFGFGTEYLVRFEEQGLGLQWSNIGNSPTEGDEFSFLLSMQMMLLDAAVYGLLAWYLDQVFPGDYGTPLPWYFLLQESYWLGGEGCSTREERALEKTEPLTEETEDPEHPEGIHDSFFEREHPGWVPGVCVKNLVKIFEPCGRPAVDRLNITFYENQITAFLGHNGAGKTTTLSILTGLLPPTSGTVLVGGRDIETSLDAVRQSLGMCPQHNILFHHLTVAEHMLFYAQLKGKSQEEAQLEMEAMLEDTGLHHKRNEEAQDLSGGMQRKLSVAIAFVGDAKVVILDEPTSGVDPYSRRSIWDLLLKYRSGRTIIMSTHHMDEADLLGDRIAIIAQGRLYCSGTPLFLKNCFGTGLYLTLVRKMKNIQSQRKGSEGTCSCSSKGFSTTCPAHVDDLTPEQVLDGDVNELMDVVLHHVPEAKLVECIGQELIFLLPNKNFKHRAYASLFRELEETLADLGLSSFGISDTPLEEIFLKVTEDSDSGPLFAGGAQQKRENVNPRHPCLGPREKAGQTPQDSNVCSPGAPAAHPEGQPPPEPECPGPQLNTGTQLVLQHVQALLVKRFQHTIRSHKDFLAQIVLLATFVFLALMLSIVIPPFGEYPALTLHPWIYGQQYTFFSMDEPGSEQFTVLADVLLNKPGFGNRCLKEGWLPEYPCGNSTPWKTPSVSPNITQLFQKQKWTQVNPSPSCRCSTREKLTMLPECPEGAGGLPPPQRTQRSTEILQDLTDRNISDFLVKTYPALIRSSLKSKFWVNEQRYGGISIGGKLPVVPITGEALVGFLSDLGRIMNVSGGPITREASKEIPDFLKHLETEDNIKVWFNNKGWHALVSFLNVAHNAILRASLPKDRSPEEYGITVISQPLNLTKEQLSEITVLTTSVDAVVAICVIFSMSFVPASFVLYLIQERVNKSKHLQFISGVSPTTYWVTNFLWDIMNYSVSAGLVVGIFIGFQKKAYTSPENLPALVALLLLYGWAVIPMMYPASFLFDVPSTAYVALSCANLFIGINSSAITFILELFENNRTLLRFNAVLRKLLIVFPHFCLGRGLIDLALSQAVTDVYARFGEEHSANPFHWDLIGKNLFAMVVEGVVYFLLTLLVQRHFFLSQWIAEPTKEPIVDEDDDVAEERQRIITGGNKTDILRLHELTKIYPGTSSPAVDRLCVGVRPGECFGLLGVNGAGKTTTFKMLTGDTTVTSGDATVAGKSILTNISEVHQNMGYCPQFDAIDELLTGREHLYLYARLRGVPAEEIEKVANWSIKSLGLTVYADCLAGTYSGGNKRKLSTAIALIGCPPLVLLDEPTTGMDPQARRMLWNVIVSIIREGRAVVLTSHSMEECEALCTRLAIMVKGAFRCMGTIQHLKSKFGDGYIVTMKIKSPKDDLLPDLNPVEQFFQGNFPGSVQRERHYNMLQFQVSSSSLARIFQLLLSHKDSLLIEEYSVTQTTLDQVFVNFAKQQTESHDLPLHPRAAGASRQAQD

pEC50 (ABCB4 WT) | pEC50 (ABCA4 P1380L) | Compound
5.00 to 6.00 | > 4.60 | CNS(=O)(=O)c1ccc(-c2cncc(Cl)c2)nc1Oc1c(C)cc(C)cc1C1CC1 [Compound I-77]
> 4.60 | 5.00 to 6.00 | Cc1cc(C)c(Oc2nc(-c3cncc(Cl)c3)ccc2N(C)S(=O)(=O)c2cccnc2)c(C)c1 [Compound I-69]
≤ 4.60 | < 4.60 | Cc1cc(C)c(Oc2nc(-c3cncc(Cl)c3)ccc2N(C)S(=O)(=O)c2cnn(C)c2)c(C)c1 [Compound I-70]
5.00 to 6.00 | 5.00 to 6.00 | Cc1cc(C)c(Oc2nc(-c3cncc(Cl)c3)ccc2S(=O)(=O)Nc2cnn(C)c2)c(C2CC2)c1 [Compound I-75]
> 4.60 | 5.00 to 6.00 | Cc1cc(C)c(Oc2nc(-c3cncc(Cl)c3)ccc2N(C)S(=O)(=O)Cc2ccccc2)c(C)c1 [Compound I-64]
≤ 4.60 | < 4.60 | Cc1cc(C)c(Oc2nc(-c3cncc(Cl)c3)ccc2NS(=O)(=O)c2cccnc2)c(C)c1 [Compound I-71]
5.00 to 6.00 | 5.00 to 6.00 | Cc1cc(C)c(Oc2nc(-c3cncc(Cl)c3)cnc2S(N)(=O)=O)c(C)c1Cl [Compound I-90]
> 4.60 | 5.00 to 6.00 | COC1CC(NS(=O)(=O)c2ccc(-c3cncc(Cl)c3)nc2Oc2c(C)cc(C)cc2C)C1 (stereo not drawn) [Compound I-78]
> 6.00 | < 4.60 | Cc1cc(C)c(Oc2nc(-c3cncc(Cl)c3)ccc2NS(=O)(=O)C2CC2)c(C)c1 [Compound I-49]
≤ 4.60 | < 4.60 | Cc1cc(C)c(Oc2nc(-c3cncc(Cl)c3)ccc2NS(=O)(=O)c2cnn(C)c2)c(C)c1 [Compound I-72]
> 6.00 | > 6.00 | CNS(=O)(=O)c1ccc(N2CCN(C(=O)C3CC3)CC2)nc1Oc1c(C)cc(C)cc1C [Compound I-73]
> 6.00 | > 6.00 | Cc1ccc(Oc2nc(-c3cncc(C#N)c3)ccc2NS(C)(=O)=O)c(C)n1 [Compound I-3]
≤ 4.60 | > 6.00 | Cc1cc(C)c(Oc2nc(-c3ccc(C#N)nc3)ccc2NS(C)(=O)=O)c(C)c1 [Compound I-45]
≤ 4.60 | > 6.00 | Cc1cc(C)c(Oc2nc(-c3cncc(C(N)=O)c3)ccc2NS(C)(=O)=O)c(C2CC2)n1 [Compound I-1]
≤ 4.60 | > 4.60 | Cc1cc(C)c(Oc2cc(-c3cncc(Cl)c3)cnc2NS(C)(=O)=O)c(C)c1 [Compound I-60]
> 6.00 | > 6.00 | COC1CC(S(=O)(=O)Nc2ccc(-c3cncc(Cl)c3)nc2Oc2c(C)cc(C)cc2C)C1 (stereo not drawn) [Compound I-51]
≤ 4.60 | 5.00 to 6.00 | Cc1cc(C)c(Oc2nc(-c3cncc(Cl)c3)ccc2N(C)S(=O)(=O)c2cccnc2)c(C2CC2)c1 [Compound I-53]
5.00 to 6.00 | > 4.60 | Cc1cc(C)c(Oc2nc(-c3cncc(Cl)c3)ccc2S(=O)(=O)NCc2ccccn2)c(C)c1 [Compound I-86]
≤ 4.60 | 4.60 to 5.00 | COc1ccc2nc[nH]c2c1S(=O)(=O)Nc1ccc(-c2cncc(Cl)c2)nc1Oc1c(C)cc(C)cc1C [Compound I-63]
≤ 4.60 | < 4.60 | Cc1cc(C)c(Oc2nc(-c3cncc(Cl)c3)ccc2N2CCCCS2(=O)=O)c(C)c1 [Compound I-66]
≤ 4.60 | < 4.60 | Cc1cc(C)c(Oc2nc(-c3cncc(Cl)c3)ccc2S(=O)(=O)NC(c2ccccn2)C(F)(F)F)c(C)c1 (single isomer, unassigned) [Compound I-80]
> 6.00 | < 4.60 | Cc1cc(C)c(Oc2nc(-c3cncc(Cl)c3)ccc2N(C)S(C)(=O)=O)c(C)c1 [Compound I-48]
> 4.60 | < 4.60 | Cc1cc(C)c(Oc2nc(-c3cncc(Cl)c3)ccc2S(=O)(=O)N(C)Cc2ccccc2)c(C)c1 [Compound I-85]
≤ 4.60 | < 4.60 | Cc1cc(C)c(Oc2nc(-c3cncc(Cl)c3)ccc2NS(C)(=O)=O)c(C)c1 [Compound I-55]
5.00 to 6.00 | < 4.60 | CC(=O)NC1CN(c2ccc(NS(=O)(=O)c3cccnc3)c(Oc3c(C)cc(C)cc3C3CC3)n2)C1 [Compound I-50]
5.00 to 6.00 | 5.00 to 6.00 | COC1CC(NS(=O)(=O)c2ccc(-c3cncc(Cl)c3)nc2Oc2c(C)cc(C)cc2C2CC2)C1 (stereo not drawn) [Compound I-74]
≤ 4.60 | < 4.60 | Cc1cc(C)c(Oc2nc(-c3cncc(Cl)c3)ccc2NS(=O)(=O)c2cnn(C)c2)c(C2CC2)c1 [Compound I-58]

pEC50 (ABCB4 WT) | pEC50 (ABCA4 P1380L) | Compound
≤ 4.60 | < 4.60 | Cc1cc(C)c(Oc2nc(-c3cncc(Cl)c3)ccc2NS(=O)(=O)Cc2ccccn2)c(C)c1 [Compound I-62]
≤ 4.60 | 5.00 to 6.00 | Cc1cc(C)c(Oc2nc(-c3cncc(Cl)c3)ccc2S(=O)(=O)N[C@@H](c2ccccc2)C(F)(F)F)c(C)c1 [Compound I-83]
5.00 to 6.00 | < 4.60 | Cc1cc(C)c(Oc2nc(-c3cncc(Cl)c3)ccc2N2CCCS2(=O)=O)c(C)c1 [Compound I-67]
≤ 4.60 | < 4.60 | Cc1cc(C)c(Oc2nc(-c3cncc(Cl)c3)ccc2NS(=O)(=O)Cc2ccccc2)c(C)c1 [Compound I-65]
> 4.60 | 5.00 to 6.00 | Cc1cc(C)c(Oc2nc(-c3cncc(Cl)c3)ccc2S(=O)(=O)NCc2ccccc2)c(C)c1 [Compound I-88]
> 4.60 | 5.00 to 6.00 | Cc1cc(C)c(Oc2nc(-c3cncc(Cl)c3)ccc2NS(C)(=O)=O)c(C2CC2)c1 [Compound I-57]
≤ 4.60 | < 4.60 | Cc1cc(C)c(Oc2cc(-c3cncc(Cl)c3)ncc2NS(C)(=O)=O)c(C)c1 [Compound I-56]
≤ 4.60 | < 4.60 | Cc1cc(C)c(Oc2nc(-c3cn[nH]c3)ccc2NS(C)(=O)=O)c(C2CC2)c1 [Compound I-2]
> 6.00 | < 4.60 | Cc1cc(C)c(Oc2nc(N3CCN(C(=O)C4CC4)CC3)ccc2NS(C)(=O)=O)c(C)c1 [Compound I-47]
≤ 4.60 | < 4.60 | Cc1cc(C)c(Oc2nc(-c3cncc(Cl)c3)ccc2NS(=O)(=O)C(C)(C)C)c(C)c1 [Compound I-68]
5.00 to 6.00 | 5.00 to 6.00 | Cc1cc(C)c(Oc2nc(-c3cncc(Cl)c3)ccc2S(=O)(=O)Nc2cnn(C)c2)c(C)c1 [Compound I-94]
> 4.60 | 5.00 to 6.00 | Cc1cc(C)c(Oc2nc(-c3cncc(Cl)c3)ccc2S(=O)(=O)N[C@H](c2ccccc2)C(F)(F)F)c(C)c1 [Compound I-81]
≤ 4.60 | 5.00 to 6.00 | Cc1cc(C)c(Oc2cc(-c3cncc(Cl)c3)cnc2N(C)S(=O)(=O)c2cnn(C)c2)c(C)c1 [Compound I-59]
5.00 to 6.00 | 5.00 to 6.00 | Cc1cc(C)c(Oc2nc(-c3cncc(Cl)c3)ccc2N(C)S(=O)(=O)c2cnn(C)c2)c(C2CC2)c1 [Compound I-52]
≤ 4.60 | < 4.60 | CNS(=O)(=O)c1ccc(N2CCN(C)C(=O)C2)nc1Oc1c(C)cc(C)cc1C [Compound I-92]
5.00 to 6.00 | < 4.60 | Cc1cc(C)c(Oc2nc(-c3cncc(Cl)c3)ccc2S(=O)(=O)NCc2cc(C(F)(F)F)ccn2)c(C)c1 [Compound I-87]
≤ 4.60 | < 4.60 | Cc1cc(C)c(Oc2nc(N3CC4(C3)CN(S(=O)(=O)C3CC3)C4)ccc2NS(C)(=O)=O)c(C)c1 [Compound I-43]
≤ 4.60 | 4.60 to 5.00 | Cc1cc(C)c(Oc2nc(N3CCN(S(=O)(=O)C4CC4)CC3)ccc2NS(C)(=O)=O)c(C)c1 [Compound I-44]
5.00 to 6.00 | < 4.60 | Cc1cc(C)c(Oc2nc(-c3cncc(Cl)c3)ccc2S(=O)(=O)NCc2ccccn2)c(C2CC2)c1 [Compound I-76]
≤ 4.60 | 5.00 to 6.00 | Cc1cc(C)c(Oc2nc(-c3cncc(Cl)c3)ncc2S(N)(=O)=O)c(C)c1Cl [Compound I-93]
≤ 4.60 | > 4.60 | Cc1cc(C)c(Oc2nc(-c3cncc(Cl)c3)ccc2S(=O)(=O)NC(c2ccccn2)C(F)(F)F)c(C)c1 (single isomer, unassigned) [Compound I-79]
5.00 to 6.00 | < 4.60 | CNS(=O)(=O)c1ncc(-c2cncc(Cl)c2)nc1Oc1c(C)cc(C)c(Cl)c1C [Compound I-89]
> 4.60 | > 6.00 | Cc1cc(C)c(Oc2nc(-c3cncc(Cl)c3)ccc2NS(C)(=O)=O)c(C)n1 [Compound I-46]
≤ 4.60 | < 4.60 | Cc1cc(C)c(Oc2cc(-c3cncc(Cl)c3)cnc2NS(=O)(=O)c2cnn(C)c2)c(C)c1 [Compound I-61]
≤ 4.60 | > 4.60 | Cc1cc(C)c(Oc2nc(-c3cncc(Cl)c3)ccc2NS(=O)(=O)c2cccnc2)c(C2CC2)c1 [Compound I-54]
≤ 4.60 | 5.00 to 6.00 | Cc1cc(C)c(Oc2nc(-c3cncc(Cl)c3)ccc2N(C2CC2)S(C)(=O)=O)c(C)c1 [Compound I-42]
≤ 4.60 | > 4.60 | CNS(=O)(=O)c1cnc(-c2cncc(Cl)c2)cc1Oc1c(C)cc(C)cc1C [Compound I-84]
